Patent US20120252825A1, “BENEFICIAL EFFECTS OF COMBINATION THERAPY ON CHOLESTEROL” (Pfizer Inc., priority 2011, published 2012)
Read-outs that look alike come from different tables or passages of the source.

Legend:
[1] = relative to Enrollment Visit
From the text: Table 2 presents the ACR20 (American College of Rheumatology 20% improvement in response rate) response rates (relative to Enrollment Visit, i.e., pre-TOFACITINIB treatment).

[2] = test system: LDL-C; settings: for Percent Change from Baseline in LDL, adjusted mean: TOFACITINIB 10 mg BID
[3] = test system: HDL; settings: FIG. 2
[4] = test system: Apolipoprotein A-1; settings: FIG. 3
[5] = test system: Apolipoprotein B; settings: FIG. 4
[6] = test system: triglycerides; settings: FIG. 5
[7] = test system: total cholesterol; settings: FIG. 6
[8] = following introduction of TOFACITINIB treatment
[9] = after Enrollment Visit (introduction of TOFACITINIB treatment)

Compound: C[C@@H]1CCN(C(=O)CC#N)C[C@@H]1N(C)c1ncnc2[nH]ccc12 [TOFACITINIB, 3-{(3R,4R)-4-Methyl-3-[methyl-(7H-pyrrolo-[2,3-d]pyrimidin-4-yl)-amino]-piperidin-1-yl}-3-oxo-propionitrile]
- ACR20 response rate, % of responders ([1]; Baseline (after 6 week treatment of TOFACITINIB 10 mg BID), atorvastatin group before add-on): 76.0%
- ACR20 response, number of responders ([1]; Baseline (after 6 week treatment of TOFACITINIB 10 mg BID), atorvastatin group before add-on, N 50): 38
- ACR20 response rate, % of responders ([1]; Baseline (after 6 week treatment of TOFACITINIB 10 mg BID), placebo group before add-on): 76.6%
- ACR20 response, number of responders ([1]; Baseline (after 6 week treatment of TOFACITINIB 10 mg BID), placebo group before add-on, N 47): 36
- ACR20 response rate, % of responders ([1]; Week 12, after 6 week treatment of atorvastatin or placebo added on to TOFACITINIB 10 mg BID): 65.2%
- ACR20 response, number of responders ([1]; Week 12, after 6 week treatment of atorvastatin or placebo added on to TOFACITINIB 10 mg BID, N 46): 30
- Percent Change from Baseline in LDL, adjusted mean ([2]; Week 10): 5.5%
- Percent Change from Baseline in LDL, adjusted mean ([2]; Week 12 (primary endpoint)): 5.8%
- baseline LDL-C mean ([2]; after 6 weeks treatment with TOFACITINIB, placebo/TOFACITINIB treatment group, before placebo was added): 138.26 mg/dL
- LDL level, trend ([2]; after Baseline Visit, FIG. 1): slightly increasing trend
- median LDL-C level, trend ([2]; after Enrollment Visit (introduction of TOFACITINIB treatment), FIG. 1): increase
- LDL-C mean ([2]; week 12, 6 weeks following randomization): 142.61 mg/dL
- HDL level, trend ([3]; after Baseline Visit): slight upward trend
- HDL level, trend ([3]; following the Enrollment Visit): increase
- Apolipoprotein A-1 level, trend ([4]; after Baseline Visit): slightly trend upward
- Apolipoprotein A-1 level, trend [4, 8]: increases
- Apolipoprotein B level, trend ([5]; after Baseline Visit): slightly increasing trend
- median Apolipoprotein B level, trend [5, 9]: increase
- triglycerides level, trend ([6]; after Baseline Visit): increases continue
- triglycerides level, trend [6, 8]: increase
- total cholesterol level, trend ([7]; after Baseline Visit): slightly increasing trend
- median total cholesterol level, trend [7, 9]: increase
